How the values were obtained:
Mouse urotensin (mUR2) = molecular target: T1, Mouse urotensin (mUR2) (Mus musculus, UniProt Q8VIH9); assay: Radioligand binding, mouse urotensin mUR2 membranes, FlashPlate, [125I]-Urotensin II; conditions: compound at 10 μM; for A11 radioligand binding inhibition: mouse urotensin mUR2 membranes
T1 construct: purchased Perkin Elmer Biosignal
T1 sequence (Q8VIH9 1-385): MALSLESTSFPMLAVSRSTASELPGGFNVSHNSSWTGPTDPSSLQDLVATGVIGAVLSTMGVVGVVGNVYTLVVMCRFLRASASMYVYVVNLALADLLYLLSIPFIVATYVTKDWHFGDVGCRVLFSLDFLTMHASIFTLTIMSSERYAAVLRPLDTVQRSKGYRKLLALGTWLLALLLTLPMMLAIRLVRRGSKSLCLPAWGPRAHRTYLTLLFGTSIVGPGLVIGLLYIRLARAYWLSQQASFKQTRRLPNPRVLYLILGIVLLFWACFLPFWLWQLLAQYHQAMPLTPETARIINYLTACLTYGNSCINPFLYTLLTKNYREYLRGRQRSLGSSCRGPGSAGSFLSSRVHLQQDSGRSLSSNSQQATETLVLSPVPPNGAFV
How it was run: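 Cloned mouse urotensin (mUR2) receptor membranes from Perkin Elmer Biosignal were immobilized in FlashPlate microplates using a proprietary coating. Each well got 19.5 μl buffer, then 0.5 μl of DMSO, reference ligand, or compound. Adding 5 μl of [125I]-Urotensin II, diluted to 5× final concentration in binding buffer, started binding. Plates were sealed with TopSeal-A and incubated 1 hour at room temperature in the dark. Wells were counted for 30 seconds each on a TopCount after a 60-second delay, and percentage inhibition was calculated.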

Human melanocortin (MC5) = molecular target: T2, Human melanocortin (MC5) (Homo sapiens, UniProt P33032); assay: Radioligand binding, human melanocortin MC5 membranes, FlashPlate, [125I]-NDP-αMSH; conditions: compound at 10 μM; for A5 radioligand binding inhibition: human melanocortin MC5 membranes
T2 construct: purchased Perkin Elmer Biosignal
How it was run: (§1)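 Cloned human receptor membranes were coated onto FlashPlate wells and incubated with radioligand and compound (added from a 0.5 mM DMSO daughter plate) for 1 hour at room temperature in the dark. Scintillation counting gave percent inhibition, with DMSO defining total and reference ligand defining non-specific binding.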

Human neurokinin (NK1) = molecular target: T3, Human neurokinin (NK1) (Homo sapiens, UniProt P25103); assay: Radioligand binding, human neurokinin NK1 membranes, filtration, [125I]-Substance P; conditions: compound at 10 μM; for A8 radioligand binding inhibition: human neurokinin NK1 membranes
T3 construct: purchased Perkin Elmer Biosignal
How it was run: (§2)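 Percent inhibition of radioligand binding measured on recombinant human membranes: NK1 with [125I]-Substance P, KOP with [3H]-Diprenorphine. Incubation 1 h at room temperature, then harvest onto 0.3% PEI-soaked filters, cold Tris-HCl pH 7.4 washes and scintillation counting; non-specific binding from reference ligand wells.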

Human Melanocortin (MC4) = molecular target: T4, Human Melanocortin (MC4) (Homo sapiens, UniProt P32245); assay: Radioligand binding, human melanocortin MC4 membranes, FlashPlate, [125I]-NDP-αMSH; conditions: compound at 10 μM; for A4 radioligand binding inhibition: human melanocortin MC4 membranes
T4 construct: purchased Perkin Elmer Biosignal
How it was run: as §1

[1] = molecular target: T5, Human melanin-concentrating hormone (MCH1) (Homo sapiens, UniProt Q99705); assay: Radioligand binding, human melanin-concentrating hormone MCH1 membranes, FlashPlate, [125I]-S36057; conditions: compound at 10 μM; for A6 radioligand binding inhibition: human MCH1 membranes
T5 construct: purchased Perkin Elmer Biosignal
How it was run: as §1

[2] = molecular target: T6, Human neuropeptide Y (NPY-Y1) (Homo sapiens, UniProt P25929); assay: Radioligand binding, human neuropeptide Y NPY-Y1 membranes, FlashPlate, [125I]-PYY; conditions: compound at 10 μM; for A9 radioligand binding inhibition: human NPY-Y1 membranes
T6 construct: purchased Perkin Elmer Biosignal
T6 sequence (P25929 1-384): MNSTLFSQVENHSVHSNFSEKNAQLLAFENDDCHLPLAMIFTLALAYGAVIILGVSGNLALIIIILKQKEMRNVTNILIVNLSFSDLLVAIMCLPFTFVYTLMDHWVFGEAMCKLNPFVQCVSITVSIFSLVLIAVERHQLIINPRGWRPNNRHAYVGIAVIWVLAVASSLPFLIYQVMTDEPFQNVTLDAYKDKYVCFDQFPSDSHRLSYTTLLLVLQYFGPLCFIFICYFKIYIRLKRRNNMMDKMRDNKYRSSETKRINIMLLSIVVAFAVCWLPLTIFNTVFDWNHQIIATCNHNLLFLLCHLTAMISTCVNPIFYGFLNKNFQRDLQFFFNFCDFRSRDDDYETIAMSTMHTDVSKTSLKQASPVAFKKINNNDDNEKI
How it was run: as §1

Human Melanocortin (MC3) = molecular target: T7, Human Melanocortin (MC3) (Homo sapiens, UniProt P41968); assay: Radioligand binding, human melanocortin MC3 membranes, FlashPlate, [125I]-NDP-αMSH; conditions: compound at 10 μM; for A3 radioligand binding inhibition: human melanocortin MC3 membranes
T7 construct: purchased Perkin Elmer Biosignal
How it was run: as §1

Human μ-opioid (MOP) = molecular target: T8, Human μ-opioid (MOP) (Homo sapiens, UniProt P35372); assay: Radioligand binding, human μ-opioid (MOP) membranes, FlashPlate, [3H]-Naloxone; conditions: compound at 10 μM; for A7 radioligand binding inhibition: human μ-opioid (MOP) membranes
T8 construct: purchased Perkin Elmer Biosignal
How it was run: as §1

Human δ-opioid (DOP) = molecular target: T9, Human δ-opioid (DOP) (Homo sapiens, UniProt P41143); assay: Radioligand binding, human δ-opioid (DOP) membranes, FlashPlate, [3H]-Bremazocine; conditions: compound at 10 μM; for A1 radioligand binding inhibition: human δ-opioid (DOP) membranes
T9 construct: purchased Perkin Elmer Biosignal
How it was run: as §1

Human opioid (ORL1) = molecular target: T10, Human opioid (ORL1) (Homo sapiens, UniProt P41146); assay: Radioligand binding, human opioid ORL1 membranes, FlashPlate, [125I]-Nociceptin; conditions: compound at 10 μM; for A10 radioligand binding inhibition: human ORL1 membranes
T10 construct: purchased Perkin Elmer Biosignal
How it was run: as §1

Human κ-Opioid (KOP) = molecular target: T11, Human κ-Opioid (KOP) (Homo sapiens, UniProt P41145); assay: Radioligand binding, human κ-opioid (KOP) membranes, filtration, [3H]-Diprenorphine; conditions: compound at 10 μM; for A2 radioligand binding inhibition: human κ-opioid (KOP) membranes
T11 construct: purchased Perkin Elmer Biosignal
How it was run: as §2

T2 sequence (P33032 whole entry): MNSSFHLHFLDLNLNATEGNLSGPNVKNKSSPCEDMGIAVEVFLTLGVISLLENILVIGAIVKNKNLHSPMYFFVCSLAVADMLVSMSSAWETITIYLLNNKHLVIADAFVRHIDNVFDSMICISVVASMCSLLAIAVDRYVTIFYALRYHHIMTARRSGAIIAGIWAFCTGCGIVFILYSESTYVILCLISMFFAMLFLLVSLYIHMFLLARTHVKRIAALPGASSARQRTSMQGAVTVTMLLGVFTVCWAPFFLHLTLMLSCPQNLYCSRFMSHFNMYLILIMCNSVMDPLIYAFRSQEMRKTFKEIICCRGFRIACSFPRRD
T7 sequence (P41968 whole entry): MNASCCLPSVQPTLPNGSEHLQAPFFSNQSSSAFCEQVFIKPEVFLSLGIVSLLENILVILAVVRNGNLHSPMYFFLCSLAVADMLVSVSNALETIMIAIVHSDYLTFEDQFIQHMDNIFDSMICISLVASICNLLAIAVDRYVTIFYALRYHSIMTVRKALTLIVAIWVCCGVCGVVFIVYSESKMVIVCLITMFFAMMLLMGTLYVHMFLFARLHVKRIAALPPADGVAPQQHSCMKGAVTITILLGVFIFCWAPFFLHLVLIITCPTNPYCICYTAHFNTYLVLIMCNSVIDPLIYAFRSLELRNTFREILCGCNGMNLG
T5 sequence (Q99705 whole entry): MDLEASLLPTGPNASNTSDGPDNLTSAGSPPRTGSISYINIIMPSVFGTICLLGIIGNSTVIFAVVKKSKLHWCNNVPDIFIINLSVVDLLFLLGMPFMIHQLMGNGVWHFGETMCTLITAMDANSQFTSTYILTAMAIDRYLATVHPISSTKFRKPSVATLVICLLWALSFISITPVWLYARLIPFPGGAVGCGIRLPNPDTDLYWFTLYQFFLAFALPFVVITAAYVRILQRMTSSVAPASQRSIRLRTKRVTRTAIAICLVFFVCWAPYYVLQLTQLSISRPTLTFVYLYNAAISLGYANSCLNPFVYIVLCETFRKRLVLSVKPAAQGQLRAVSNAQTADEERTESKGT
T8 sequence (P35372 whole entry): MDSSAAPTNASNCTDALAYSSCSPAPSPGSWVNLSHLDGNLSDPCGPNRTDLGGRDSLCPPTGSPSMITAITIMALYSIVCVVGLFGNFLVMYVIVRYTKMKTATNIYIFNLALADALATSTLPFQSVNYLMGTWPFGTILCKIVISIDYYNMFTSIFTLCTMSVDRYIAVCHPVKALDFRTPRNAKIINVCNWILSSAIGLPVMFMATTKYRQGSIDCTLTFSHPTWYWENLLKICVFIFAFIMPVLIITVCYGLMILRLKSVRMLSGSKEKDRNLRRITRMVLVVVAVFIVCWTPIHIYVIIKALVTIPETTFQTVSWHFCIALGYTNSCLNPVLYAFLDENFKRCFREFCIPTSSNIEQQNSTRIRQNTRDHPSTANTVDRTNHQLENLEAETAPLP
T9 sequence (P41143 whole entry): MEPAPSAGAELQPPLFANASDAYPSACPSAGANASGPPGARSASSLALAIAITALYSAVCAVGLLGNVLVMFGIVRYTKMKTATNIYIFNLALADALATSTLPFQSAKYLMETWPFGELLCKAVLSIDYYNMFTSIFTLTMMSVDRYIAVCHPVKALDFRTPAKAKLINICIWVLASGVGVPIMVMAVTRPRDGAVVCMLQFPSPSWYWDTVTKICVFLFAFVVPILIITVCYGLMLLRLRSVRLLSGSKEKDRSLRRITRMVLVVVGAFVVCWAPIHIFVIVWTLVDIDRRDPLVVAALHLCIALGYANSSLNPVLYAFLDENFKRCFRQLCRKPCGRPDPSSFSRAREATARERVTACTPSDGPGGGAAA
T4 sequence (P32245 whole entry): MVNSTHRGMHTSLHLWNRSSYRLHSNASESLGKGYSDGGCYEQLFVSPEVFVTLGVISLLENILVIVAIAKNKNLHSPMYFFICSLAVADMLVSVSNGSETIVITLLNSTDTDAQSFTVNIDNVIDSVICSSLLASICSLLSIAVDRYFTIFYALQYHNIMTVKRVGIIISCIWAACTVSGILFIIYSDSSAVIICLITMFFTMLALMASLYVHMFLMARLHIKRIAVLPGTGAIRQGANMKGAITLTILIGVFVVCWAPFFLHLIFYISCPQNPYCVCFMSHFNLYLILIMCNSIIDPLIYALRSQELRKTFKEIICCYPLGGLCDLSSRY
T3 sequence (P25103 whole entry): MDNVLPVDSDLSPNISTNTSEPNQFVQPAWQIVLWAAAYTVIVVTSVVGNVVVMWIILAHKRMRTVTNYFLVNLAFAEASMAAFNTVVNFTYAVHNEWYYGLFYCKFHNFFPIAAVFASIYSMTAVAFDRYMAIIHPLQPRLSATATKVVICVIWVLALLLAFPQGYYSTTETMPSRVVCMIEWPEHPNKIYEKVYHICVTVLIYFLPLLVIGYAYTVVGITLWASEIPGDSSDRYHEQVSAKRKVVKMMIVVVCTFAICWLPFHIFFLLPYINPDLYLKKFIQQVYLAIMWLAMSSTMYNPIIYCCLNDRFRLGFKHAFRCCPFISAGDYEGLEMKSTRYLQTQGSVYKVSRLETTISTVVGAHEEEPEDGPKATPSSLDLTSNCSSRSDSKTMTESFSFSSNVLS
T10 sequence (P41146 whole entry): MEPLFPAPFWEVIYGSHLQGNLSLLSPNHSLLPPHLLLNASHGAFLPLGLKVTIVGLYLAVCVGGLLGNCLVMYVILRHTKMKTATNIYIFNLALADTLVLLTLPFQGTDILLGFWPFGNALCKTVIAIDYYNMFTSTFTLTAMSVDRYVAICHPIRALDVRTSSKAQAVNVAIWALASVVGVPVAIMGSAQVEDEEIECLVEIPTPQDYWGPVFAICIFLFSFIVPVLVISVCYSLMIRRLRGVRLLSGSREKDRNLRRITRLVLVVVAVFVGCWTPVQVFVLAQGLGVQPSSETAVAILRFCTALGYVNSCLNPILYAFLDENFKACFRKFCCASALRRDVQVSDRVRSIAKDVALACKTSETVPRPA
T11 sequence (P41145 whole entry): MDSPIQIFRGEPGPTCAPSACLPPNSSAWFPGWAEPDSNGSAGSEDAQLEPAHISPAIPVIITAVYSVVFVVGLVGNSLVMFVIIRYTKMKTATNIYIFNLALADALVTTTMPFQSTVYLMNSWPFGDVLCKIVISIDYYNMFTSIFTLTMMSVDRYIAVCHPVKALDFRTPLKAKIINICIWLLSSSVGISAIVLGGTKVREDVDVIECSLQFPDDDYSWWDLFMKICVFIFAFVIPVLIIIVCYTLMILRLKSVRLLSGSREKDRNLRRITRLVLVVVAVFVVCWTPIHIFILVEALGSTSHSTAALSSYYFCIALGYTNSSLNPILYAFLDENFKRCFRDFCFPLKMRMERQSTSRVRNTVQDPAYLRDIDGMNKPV

Row | SMILES | A11 radioligand binding inhibition (Mouse urotensin (mUR2)) | A5 radioligand binding inhibition (Human melanocortin (MC5)) | A8 radioligand binding inhibition (Human neurokinin (NK1)) | A4 radioligand binding inhibition (Human Melanocortin (MC4)) | A6 radioligand binding inhibition [1] | A9 radioligand binding inhibition [2] | A3 radioligand binding inhibition (Human Melanocortin (MC3)) | A7 radioligand binding inhibition (Human μ-opioid (MOP)) | A1 radioligand binding inhibition (Human δ-opioid (DOP)) | A10 radioligand binding inhibition (Human opioid (ORL1)) | A2 radioligand binding inhibition (Human κ-Opioid (KOP)) | A11: inhibition of radioligand binding, mouse urotensin (mUR2) (Mouse urotensin (mUR2); [125I]-Urotensin II) | A5: inhibition of radioligand binding, human melanocortin (MC5) (Human melanocortin (MC5); [125I]-NDP-αMSH) | A8: inhibition of radioligand binding, human neurokinin (NK1) (Human neurokinin (NK1); [125I]-Substance P) | A4: inhibition of radioligand binding, human melanocortin (MC4) (Human Melanocortin (MC4); [125I]-NDP-αMSH) | A6: inhibition of radioligand binding, human melanin-concentrating hormone (MCH1) ([1]; [125I]-S36057) | A9: inhibition of radioligand binding, human neuropeptide Y (NPY-Y1) ([2]; [125I]-PYY) | A3: inhibition of radioligand binding, human melanocortin (MC3) (Human Melanocortin (MC3); [125I]-NDP-αMSH) | A7: inhibition of radioligand binding, human μ-opioid (MOP) (Human μ-opioid (MOP); [3H]-Naloxone) | A1: inhibition of radioligand binding, human δ-opioid (DOP) (Human δ-opioid (DOP); [3H]-Bremazocine) | also measured
1 | CO[C@H]1[C@H](O)[C@@H](COCc2ccccc2)OC(OCc2ccc3ccccc3c2)[C@@H]1NC(=O)CNC(=N)N (stereo partly drawn) [compound 74] | − (“−” indicates less than 50% inhibition at 10 μM) | + (“+” indicates greater than 50% inhibition at 10 μM) | + (“+” indicates greater than 50% inhibition at 10 μM) | − (“−” indicates less than 50% inhibition at 10 μM) | − (“−” indicates less than 50% inhibition at 10 μM) | − (“−” indicates less than 50% inhibition at 10 μM) | − (“−” indicates less than 50% inhibition at 10 μM) | + (“+” indicates greater than 50% inhibition at 10 μM) | − (“−” indicates less than 50% inhibition at 10 μM) | − (“−” indicates less than 50% inhibition at 10 μM) | − (“−” indicates less than 50% inhibition at 10 μM) |  |  |  |  |  |  |  |  |  | 
2 | COC[C@H]1OC(OCc2ccc3ccccc3c2)[C@H](NC(=O)CCCNC(=N)N)[C@@H](OCc2ccccc2)[C@@H]1O (stereo partly drawn) [compound 21] | − (“−” indicates less than 50% inhibition at 10 μM) | − (“−” indicates less than 50% inhibition at 10 μM) | + (“+” indicates greater than 50% inhibition at 10 μM) | − (“−” indicates less than 50% inhibition at 10 μM) | − (“−” indicates less than 50% inhibition at 10 μM) | − (“−” indicates less than 50% inhibition at 10 μM) | − (“−” indicates less than 50% inhibition at 10 μM) | − (“−” indicates less than 50% inhibition at 10 μM) | − (“−” indicates less than 50% inhibition at 10 μM) | − (“−” indicates less than 50% inhibition at 10 μM) | − (“−” indicates less than 50% inhibition at 10 μM) |  |  |  |  |  |  |  |  |  | 
3 | COC[C@H]1OC(OCc2ccc3ccccc3c2)[C@H](NC(=O)CCCNC(=N)N)[C@@H](OCc2cccc(O)c2)[C@@H]1O (stereo partly drawn) [compound 135] |  |  |  |  |  |  |  |  |  |  |  |  |  |  |  |  |  |  |  |  | A11 radioligand binding, percentage inhibition (Mouse urotensin (mUR2); [125I]-Urotensin II): − (“−” indicates less than 50% inhibition at 10 μM); A5 radioligand binding, percentage inhibition (Human melanocortin (MC5); [125I]-NDP-αMSH): − (“−” indicates less than 50% inhibition at 10 μM); A8 radioligand binding, percentage inhibition (Human neurokinin (NK1); [125I]-Substance P): − (“−” indicates less than 50% inhibition at 10 μM); A4 radioligand binding, percentage inhibition (Human Melanocortin (MC4); [125I]-NDP-αMSH): − (“−” indicates less than 50% inhibition at 10 μM); A6 radioligand binding, percentage inhibition ([1]; [125I]-S36057): − (“−” indicates less than 50% inhibition at 10 μM); A9 radioligand binding, percentage inhibition ([2]; [125I]-PYY): − (“−” indicates less than 50% inhibition at 10 μM); A3 radioligand binding, percentage inhibition (Human Melanocortin (MC3); [125I]-NDP-αMSH): − (“−” indicates less than 50% inhibition at 10 μM); A7 radioligand binding, percentage inhibition (Human μ-opioid (MOP); [3H]-Naloxone): + (“+” indicates greater than 50% inhibition at 10 μM); A1 radioligand binding, percentage inhibition (Human δ-opioid (DOP); [3H]-Bremazocine): − (“−” indicates less than 50% inhibition at 10 μM); A10 radioligand binding, percentage inhibition (Human opioid (ORL1); [125I]-Nociceptin): − (“−” indicates less than 50% inhibition at 10 μM); A2 radioligand binding, percentage inhibition (Human κ-Opioid (KOP); [3H]-Diprenorphine): − (“−” indicates less than 50% inhibition at 10 μM)
4 | CSC1O[C@H](COCc2ccc(Cl)cc2)[C@@H](O)[C@@H](OCc2ccc(-c3ccccc3)cc2)[C@H]1NC(=O)CNC(=N)N (stereo partly drawn) [compound 289] |  |  |  |  |  |  |  |  |  |  |  | − (“−” indicates less than 50% inhibition at 10 μM) | + (“+” indicates greater than 50% inhibition at 10 μM) | + (“+” indicates greater than 50% inhibition at 10 μM) | + (“+” indicates greater than 50% inhibition at 10 μM) | − (“−” indicates less than 50% inhibition at 10 μM) | − (“−” indicates less than 50% inhibition at 10 μM) | − (“−” indicates less than 50% inhibition at 10 μM) | − (“−” indicates less than 50% inhibition at 10 μM) | − (“−” indicates less than 50% inhibition at 10 μM) | A10: inhibition of radioligand binding, human opioid (ORL1) (Human opioid (ORL1); [125I]-Nociceptin): − (“−” indicates less than 50% inhibition at 10 μM); A2: inhibition of radioligand binding, human κ-opioid (KOP) (Human κ-Opioid (KOP); [3H]-Diprenorphine): − (“−” indicates less than 50% inhibition at 10 μM)
5 | COC[C@H]1OC(OCc2ccc(-c3ccccc3)cc2)[C@H](NC(=O)CNC(=N)N)[C@@H](OCc2ccc(Cl)cc2)[C@@H]1O (stereo partly drawn) [compound 10] | − (“−” indicates less than 50% inhibition at 10 μM) | + (“+” indicates greater than 50% inhibition at 10 μM) | + (“+” indicates greater than 50% inhibition at 10 μM) | − (“−” indicates less than 50% inhibition at 10 μM) | + (“+” indicates greater than 50% inhibition at 10 μM) | − (“−” indicates less than 50% inhibition at 10 μM) | − (“−” indicates less than 50% inhibition at 10 μM) | − (“−” indicates less than 50% inhibition at 10 μM) | − (“−” indicates less than 50% inhibition at 10 μM) | − (“−” indicates less than 50% inhibition at 10 μM) | − (“−” indicates less than 50% inhibition at 10 μM) |  |  |  |  |  |  |  |  |  | 
6 | COC1C(O)C(COCc2ccc3ccccc3c2)OC(OCc2ccc(Cl)cc2)C1NC(=O)C1CCCN(C(=N)N)C1 (stereo not drawn) [compound 348] |  |  |  |  |  |  |  |  |  |  |  | − (“−” indicates less than 50% inhibition at 10 μM) | + (“+” indicates greater than 50% inhibition at 10 μM) | + (“+” indicates greater than 50% inhibition at 10 μM) | − (“−” indicates less than 50% inhibition at 10 μM) | − (“−” indicates less than 50% inhibition at 10 μM) | − (“−” indicates less than 50% inhibition at 10 μM) | − (“−” indicates less than 50% inhibition at 10 μM) | − (“−” indicates less than 50% inhibition at 10 μM) | − (“−” indicates less than 50% inhibition at 10 μM) | A10: inhibition of radioligand binding, human opioid (ORL1) (Human opioid (ORL1); [125I]-Nociceptin): − (“−” indicates less than 50% inhibition at 10 μM); A2: inhibition of radioligand binding, human κ-opioid (KOP) (Human κ-Opioid (KOP); [3H]-Diprenorphine): − (“−” indicates less than 50% inhibition at 10 μM)

Source: US20080009418A1, “Selective Inhibitors” (Alchemia LTD., priority 2004, published 2008)
